The subject of assay [1] is phosphorylated Akt1 (Ser473) in MCF7 cells. Nature of the assay: Cellular PI3K/Akt pathway assay (pAkt-ELISA). To be noted: Homo sapiens, β-Heregulin stimulation, 48 h, read-out: Akt pathway inhibition (pAkt-ELISA): IC50. Format: cell-based. The method, then:
In order to study the cellular activity of the compounds according to the invention, an ELISA-based assay has been established. The assay is based on a Sandwich ELISA kit (PathScan™ Phospho-Akt1 (Ser473); Cell Signaling, USA; #7160).
The assay detects endogenous levels of phosphorylated Akt1 protein. A phospho-Akt (Ser473) antibody (Cell Signaling, USA; #9271) has been coated onto the microwells. After incubation with cell lysates, the phosphorylated Akt protein is captured by the coated antibody. Following extensive washing, Akt1 monoclonal antibody (Cell Signaling, USA; #2967) is added to detect the captured phospho-Akt1 protein. HRP-linked anti-mouse antibody (Cell Signaling, USA; #7076) is then used to recognize the bound detection antibody. HRP substrate (=TMB; Cell Signaling, USA; #7160) is added to develop colour. The magnitude of optical density for this developed color is proportional to the quantity of phosphorylated Akt1 protein.
MCF7 cells (ATCC HTB-22) are seeded into 96 well fate bottom plates at a density of 10000 cells/well. 24 hours after seeding the cells are starved using estrogen-free medium (IMEM including 0.1% charcoal treated FCS). […] To stimulate Akt phosphorylation, β-Heregulin (20 ng/ml) is added in parallel to the compounds. Wells containing unstimulated control cells (no β-Heregulin stimulation) are incubated with or without the diluted compound. Wells containing untreated control cells (no compound) are filled with medium containing 0.5% v:v DMSO and are with P-Heregulin or are not stimulated.
Cells are harvested under nondenaturating conditions and lysed with brief sonification in 1× cell lyses buffer (20 mM Tris (pH7.5), 150 mM NaCl, 1 mM ethylene diaminetetraacetate (EDTA), 1 mM ethylene glycolbis-(2-aminoethyl)-N,N,N′,N′-tetraacetic acid (EGTA), 1% Triton X-100, 2.5 mM sodium pyrophosphate, 1 mM β-glycerolphosphate, 1 mM Na3VO4, 1 μg/ml leupeptin). The lysate is microcentrifuged for 10 minutes at 4° C. and the supernatant is transferred to a new tube. 100 μl of sample diluent (0.1% tween-20, 0.1% sodium azide in 20× PBS) are added to a microcentrifuge tube and 100 μl of cell lysate are transferred into the tube and vortexed. 100 μl of each diluted cell lysate are added to the appropriate well (phospho-Akt (Ser473) antibody coated microwells; Cell Signaling, USA; #7160) and incubated overnight at 4° C. The plates are washed 4 times with 1× wash buffer (1% tween-20, 0.33% thymol, in 20×PBS). Then 100 μl of detection antibody (Akt1 (2H10) monoclonal detection antibody; Cell Signaling, USA; #2967) are added to each well and incubated for 1 h at 37° C. The washing procedure is repeated between each step. […] The absorbance is read at 450 nm (Wallac Victor2; Perkin Elmer, USA) within 30 minutes after adding STOP solution. […]
On the technique in general: ELISA stands for enzyme-linked immunosorbent assay.

The next assay deals with T1, PKA (Homo sapiens, UniProt P17612).
T1 construct: His; purchased PanVera, USA #R3791; host or cells: E. coli
The assay is described as follows: Biochemical PKA assay (flashplate). To be noted: 100 nM ATP; read-out: PKA inhibition: −log IC50 (converted). The essentials: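 His-tagged human recombinant PKA catalytic subunit (E. coli), 1 ng/well, with 0.5 μM PKA peptide and 100 nM ATP including ^33P-ATP. Buffer […] pH7,5, 3 mM MgCl2, 3 mM MnCl2, Na-orthovanadate, 1 mM DTT; 80 min at 22° C. Stopped with H3PO4, scintillation flashplate counting, IC50 derived.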

The structures appear in SMILES notation. pIC50: −log10 of the molar value.

Usually pIC50 stands for the IC50 on a negative log10 scale, so that one unit is a factor of ten. For the molecule `NCCCC(=O)Nc1ccc(Nc2nc(-c3cccc4c3oc3ccccc34)cc3ccnn23)cc1` [Example 24, 4-Amino-N-[4-(5-dibenzofuran-4-yl-pyrazolo[1,5-c]pyrimidin-7-ylamino)-phenyl]-butyramide], the pIC50 in assay [1] is ≥ 5.22.
For orientation: IC50 means the concentration that gives 50% inhibition. For the molecule `COc1cccc(-c2ccc(-c3cc4ccnn4c(Nc4ccc(NC(=O)c5ccc(CN)cc5)cc4)n3)cc2)c1` [Example 59, 4-Aminomethyl-N-{4-[5-(3′-methoxy-biphenyl-4-yl)-pyrazolo[1,5-c]pyrimidin-7-ylamino]-phenyl}-benzamide], the negative-log IC50 (pIC50) in assay [1] was ≥ 5.22. The half-maximal inhibitory concentration (IC50) on PKA is 6.31 to 100 µM.
Regarding `O=C(Nc1cccc(Nc2nc(-c3cccc4c3oc3ccccc34)cc3ccnn23)c1)c1ccc2c(c1)CCNC2` [Example 63, 1,2,3,4-Tetrahydro-isoquinoline-6-carboxylic acid [3-(5-dibenzofuran-4-yl-pyrazolo[1,5-c]pyrimidin-7-ylamino)-phenyl]-amide], in assay [1], the pIC50 is ≥ 5.22. On PKA, the IC50 was 6.31 to 100 µM.
Regarding `COc1cccc(-c2ccc(-c3cc4c(Br)cnn4c(Nc4ccc(NC(=O)c5ccc(CN)cc5)cc4)n3)cc2)c1` [Example 87, 4-Aminomethyl-N-{4-[3-bromo-5-(3′-methoxy-biphenyl-4-yl)-pyrazolo[1,5-c]pyrimidin-7-ylamino]-phenyl}-benzamide], in assay [1], the pIC50 is ≥ 5.22.

These data come from patent US7745446B2, “Pyrazolo[1,5-c]pyrimidines” (Bayer Schering Pharma Aktiengesellschaft, priority 2004, dated 2010).
